Data reported in US12661410B2, “Compounds for targeted degradation of RET” (C4 Therapeutics, Inc., priority 2020, dated 2026).
Where a chain is given by its changes, count along the chain named.

Legend:
RET (658-1114) = molecular target: T1, RET (658-1114) (Homo sapiens, UniProt P07949); test: HiBiT-Degradation, RET wild-type degradation assay (Nano-Glo HiBiT Lytic), 293T.144 cells; assay type: cell-based; conditions: for Emax / DC50: 6.0 hours; for Emax: % remaining protein, read-out: 293T.144 RET (658-1114) 6.0 hours (Emax); for DC50: half-maximal degradation concentration, read-out: 293T.144 RET (658-1114) 6.0 hours (DC50)
T1 construct: 658-1114; expressed in transfected cells; host or cells: 293T.144 (293T cells, generated in-house)
T1 sequence (P07949 658-1114): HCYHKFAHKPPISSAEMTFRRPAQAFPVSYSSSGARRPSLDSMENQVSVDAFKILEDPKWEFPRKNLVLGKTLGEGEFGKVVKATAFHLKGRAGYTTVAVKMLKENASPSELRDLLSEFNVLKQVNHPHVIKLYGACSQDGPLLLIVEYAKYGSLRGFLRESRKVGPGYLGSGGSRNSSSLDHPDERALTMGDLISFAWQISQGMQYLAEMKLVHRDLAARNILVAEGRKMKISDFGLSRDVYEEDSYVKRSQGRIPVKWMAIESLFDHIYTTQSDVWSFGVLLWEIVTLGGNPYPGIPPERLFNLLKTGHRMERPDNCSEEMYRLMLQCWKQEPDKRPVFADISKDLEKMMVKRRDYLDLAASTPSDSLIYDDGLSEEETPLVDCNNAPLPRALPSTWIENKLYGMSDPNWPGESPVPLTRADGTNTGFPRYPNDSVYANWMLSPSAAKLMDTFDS
Procedure, shortened: (§1)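 Luminescence readout of HiBiT-tagged RET kinase domain remaining after 6 h compound exposure. Cells: 293T.144 (wild type) or 293T.165 (G810R), 11 half-log doses up to 10 μM, duplicates. DC50 and Emax as % remaining protein taken from curve fits.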

RET(KD: 658-1114 G810R) = molecular target: T2, RET(KD: 658-1114 G810R) (Homo sapiens, UniProt P07949, G810R); test: HiBiT-Degradation, RET G810R degradation assay (Nano-Glo HiBiT Lytic), 293T.165 cells; assay type: cell-based; conditions: for Emax / DC50: 6.0 hours; for Emax: % remaining protein, read-out: 293T.165 RET(KD: 658-1114 G810R) 6.0 hours (Emax); for DC50: half-maximal degradation concentration, read-out: 293T.165 RET(KD: 658-1114 G810R) 6.0 hours (DC50)
T2 construct: 658-1114; expressed in transfected cells; host or cells: 293T.165 (293T cells, generated in-house)
T2 sequence (P07949 658-1114 G810R): T1 sequence (P07949 658-1114) with G153R
Procedure, shortened: as §1

SMILES | 293T.144 RET (658-1114) 6.0 hours (IP) [nM] (RET (658-1114)) | Emax (RET (658-1114)) [%] | DC50 (RET (658-1114)) [nM] | 293T.165 RET(KD: 658-1114 G810R) 6.0 hours (IP) [nM] (RET(KD: 658-1114 G810R)) | Emax (RET(KD: 658-1114 G810R)) [%] | DC50 (RET(KD: 658-1114 G810R)) [nM]
CCC1(C(=O)NC(C)C)CCN(c2ncc(-c3nc(-c4cnn(C5CCN(C(=O)CC6(O)CCN(c7ccc(NC8CCC(=O)NC8=O)cc7F)CC6)CC5)c4)cn4ncc(C#N)c34)cc2F)CC1 (stereo not drawn) [Compound 119, 1-(5-(3-cyano-6-(1-(1-(2-(1-(4-((2,6-dioxopiperidin-3-yl)amino)-2-fluorophenyl)-4-hydroxypiperidin-4-yl)acetyl)piperidin-4-yl)-1H-pyrazol-4-yl)pyrazolo[1,5-a]pyrazin-4-yl)-3-fluoropyridin-2-yl)-4-ethyl-N-isopropylpiperidine-4-carboxamide] | ++++ (<50 nM = ++++) | < 30 | < 50 | ++++ (<50 nM = ++++) | < 50 | < 100
CCC1(C(=O)NC(C)C)CCN(c2ncc(-c3nc(-c4cnn(C5CCN(C(=O)CC6(O)CCN(c7ccc(NC8CCC(=O)NC8=O)cc7Cl)CC6)CC5)c4)cn4ncc(C#N)c34)cc2F)CC1 (stereo not drawn) [Compound 120, 1-[5-[6-[1-[1-[2-[1-[2-chloro-4-[(2,6-dioxo-3-piperidyl)amino]phenyl]-4-hydroxy-4-piperidyl]acetyl]-4-piperidyl]pyrazol-4-yl]-3-cyano-pyrazolo[1,5-a]pyrazin-4-yl]-3-fluoro-2-pyridyl]-4-ethyl-N-isopropyl-piperidine-4-carboxamide] | ++++ (<50 nM = ++++) | < 30 | < 50 | ++++ (<50 nM = ++++) | < 50 | < 100
CCC1(C(=O)NC2CCCC2)CCN(c2ccc(-c3nc(-c4cnn([C@H]5CC[C@H](N6CCC(c7ccc(N[C@H]8CCC(=O)NC8=O)cc7F)CC6)CC5)c4)cn4ncc(C#N)c34)cn2)CC1 [Compound 141, 1-[5-[3-cyano-6-[1-[4-[4-[4-[[(3S)-2,6-dioxo-3-piperidyl]amino]-2-fluoro-phenyl]-1-piperidyl]cyclohexyl]pyrazol-4-yl]pyrazolo[1,5-a]pyrazin-4-yl]-2-pyridyl]—N-cyclopentyl-4-ethyl-piperidine-4-carboxamide] | ++++ (<50 nM = ++++) | < 30 | < 50 | ++++ (<50 nM = ++++) | < 30 | < 50
COc1ccc(CN2C[C@H]3COC[C@@H](C2)N3c2ccc(-c3nc(-c4cnn([C@H]5CC[C@H](N6CCN(c7ccc(NC8CCC(=O)NC8=O)cc7F)CC6)CC5)c4)cn4ncc(C#N)c34)cn2)cn1 (stereo partly drawn) [Compound 160, 6-[1-[4-[4-[4-[(2,6-dioxo-3-piperidyl)amino]-2-fluoro-phenyl]piperazin-1-yl]cyclohexyl]pyrazol-4-yl]-4-[6-[(1R,5S)-7-[(6-methoxy-3-pyridyl)methyl]-3-oxa-7,9-diazabicyclo[3.3.1]nonan-9-yl]-3-pyridyl]pyrazolo[1,5-a]pyrazine-3-carbonitrile] | ++++ (<50 nM = ++++) | < 30 | < 50 | ++++ (<50 nM = ++++) | < 30 | < 50
COc1ccc(CN2C3COCC2CN(c2ccc(-c4nc(-c5cnn([C@H]6CC[C@H](N7CCN(c8cc(OC)c(NC9CCC(=O)NC9=O)cc8F)CC7)CC6)c5)cn5ncc(C#N)c45)cn2)C3)cn1 (stereo partly drawn) [Compound 165, 6-[1-[4-[4-[4-[(2,6-dioxo-3-piperidyl)amino]-2-fluoro-5-methoxy-phenyl]piperazin-1-yl]cyclohexyl]pyrazol-4-yl]-4-[6-[9-[(6-methoxy-3-pyridyl)methyl]-3-oxa-7,9-diazabicyclo[3.3.1]nonan-7-yl]-3-pyridyl]pyrazolo[1,5-a]pyrazine-3-carbonitrile] | ++++ (<50 nM = ++++) | < 30 | < 50 | +++ (<100 nM = +++) | < 30 | < 100

Second part, the molecule after the results:

293T.144 RET (658-1114) 6.0 hours (IP) [nM] (RET (658-1114)) | Emax (RET (658-1114)) [%] | DC50 (RET (658-1114)) [nM] | 293T.165 RET(KD: 658-1114 G810R) 6.0 hours (IP) [nM] (RET(KD: 658-1114 G810R)) | Emax (RET(KD: 658-1114 G810R)) [%] | DC50 (RET(KD: 658-1114 G810R)) [nM] | SMILES
++++ (<50 nM = ++++) | < 30 | < 50 | ++++ (<50 nM = ++++) | < 30 | < 50 | CCC1(C(=O)NC(C)C)CCN(c2ccc(-c3nc(-c4cnn(C5CCN(CC6(O)CCN(c7ccc(NC8CCC(=O)NC8=O)cc7F)CC6)CC5)c4)cn4ncc(C#N)c34)cn2)CC1 (stereo not drawn) [Compound 118, 1-(5-(3-cyano-6-(1-(1-((1-(4-((2,6-dioxopiperidin-3-yl)amino)-2-fluorophenyl)-4-hydroxypiperidin-4-yl)methyl)piperidin-4-yl)-1H-pyrazol-4-yl)pyrazolo[1,5-a]pyrazin-4-yl)pyridin-2-yl)-4-ethyl-N-isopropylpiperidine-4-carboxamide]
++++ (<50 nM = ++++) | < 30 | < 50 | ++++ (<50 nM = ++++) | < 30 | < 50 | CCC1(C(=O)NC(C)C)CCN(c2ccc(-c3nc(-c4cnn(C5CCN(C(=O)CC6(O)CCN(c7ccc(NC8CCC(=O)NC8=O)cc7F)CC6)CC5)c4)cn4ncc(C#N)c34)cc2)CC1 (stereo not drawn) [Compound 121, 1-(4-(3-Cyano-6-(1-(1-(2-(1-(4-((2,6-dioxopiperidin-3-yl)amino)-2-fluorophenyl)-4-hydroxypiperidin-4-yl)acetyl)piperidin-4-yl)-1H-pyrazol-4-yl)pyrazolo[1,5-a]pyrazin-4-yl)phenyl)-4-ethyl-N-isopropylpiperidine-4-carboxamide]
++++ (<50 nM = ++++) | < 30 | < 50 | ++++ (<50 nM = ++++) | < 30 | < 50 | CCC1(C(=O)NC2CCCC2)CCN(c2ccc(-c3nc(-c4cnn([C@H]5CC[C@H](N6CCC(c7ccc(N[C@@H]8CCC(=O)NC8=O)cc7F)CC6)CC5)c4)cn4ncc(C#N)c34)cn2)CC1 [Compound 142, 1-[5-[3-cyano-6-[1-[4-[4-[4-[[(3R)-2,6-dioxo-3-piperidyl]amino]-2-fluoro-phenyl]-1-piperidyl]cyclohexyl]pyrazol-4-yl]pyrazolo[1,5-a]pyrazin-4-yl]-2-pyridyl]-N-cyclopentyl-4-ethyl-piperidine-4-carboxamide]
++++ (<50 nM = ++++) | < 30 | < 50 | ++++ (<50 nM = ++++) | < 30 | < 100 | COc1cc(N2CCN([C@H]3CC[C@H](n4cc(-c5cn6ncc(C#N)c6c(-c6ccc(N7C[C@@H]8[C@@H](CNC(=O)c9ncccc9Cl)[C@@H]8C7)nc6)n5)cn4)CC3)CC2)c(F)cc1NC1CCC(=O)NC1=O (stereo partly drawn) [Compound 168, 3-chloro-N-[[(1S,5R)-3-[5-[3-cyano-6-[1-[4-[4-[4-[(2,6-dioxo-3-piperidyl)amino]-2-fluoro-5-methoxy-phenyl]piperazin-1-yl]cyclohexyl]pyrazol-4-yl]pyrazolo[1,5-a]pyrazin-4-yl]-2-pyridyl]-3-azabicyclo[3.1.0]hexan-6-yl]methyl]pyridine-2-carboxamide]
